This is an account of results in patent US20150352137A1, “THYMIDINE FOR PREVENTING NEURAL TUBE DEFECTS” (priority 2012, published 2015).

In one data set the test system is curly tail embryos. The data set is described as follows: Frequency of exencephaly (cranial NTDs) among curly tail embryos after maternal supplementation. The format is in vivo, mouse. The settings on record: maternal i.p. 20 mg/kg each reagent daily E7.5-10.5; controls 6.8%. Here is the method: The closure defects in ct/ct embryos are a mechanical consequence of excessive ventral curvature of the caudal region of the embryo. This, in turn, results from a dorso-ventral growth imbalance caused by a diminished cellular proliferation rate in the hindgut endoderm. In addition to spina bifida, cranial NTDs (exencephaly) also occur at low frequency among curly tail embryos (approximately 5%), but the cellular basis for these defects is not known. […] Any resorptions were recorded. Crown-rump length was measured using an eyepiece graticule. The frequency of exencephaly (cranial NTDs) among genetically predisposed curly tail embryos was also assessed. The frequency of exencephaly was 6.8% among embryos from control litters. There was a trend towards diminished frequency of exencephaly among embryos treated with thymidine and adenine, thymidine and GMP, or thymidine only, compared with controls (3.0%, 2.5% and 2.7% respectively, see FIG. 4).

The subject of a further data set is curly tail mice. As to conditions: female, mouse, in vivo. Here is the method:
Experimental litters were generated by overnight mating with the day of finding a copulation plug designated embryonic day (E) 0.5. Maternal supplementation was performed daily from E7.5-10.5.
Treatments were: control (water only), thymidine+adenine, thymidine+hypoxanthine, thymidine+GMP, thymidine only, adenine only (all reagents from Sigma). GMP was used instead of guanine owing to solubility considerations in preparing solutions for injection. Animal studies were carried out under regulations of the Animals (Scientific Procedures) Act 1986 of the UK Government, and in according with guidance issued by the Medical Research Council, UK in Responsibility in the Use of Animals for Medical Research (July 1993).
Collection of Embryos Litters were dissected from the uterus, at E11.5-13.5, in Dulbecco's Modified Eagle's Medium containing 10% fetal calf serum and assessed for presence of neural tube defects (NTDs) under a light microscope. Any resorptions were recorded. Crown-rump length was measured using an eyepiece graticule.
In order to evaluate potential effects of treatment on litter size or embryonic viability, the number of embryos in each litter was recorded together with the presence of dead or resorbed embryos.

The subject of data set [1] is curly tail (ct/ct) embryos. The data set is described as follows: Frequency of spina bifida, tail flexion defects and straight tails in curly tail embryos after maternal supplementation. It counts as in vivo, mouse. The settings on record: for frequency of straight-tailed (unaffected) embryos compared with controls: all embryos; for frequency of straight-tailed (unaffected) embryos compared with controls / frequency of spina bifida compared with controls: z-test; for frequency of spina bifida compared with controls: maternal i.p. 20 mg/kg each reagent daily E7.5-10.5, embryos scored E11.5-13.5. An excerpt:
The curly tail (ct) mouse is considered a useful model for NTDs owing to a number of characteristics that resemble the corresponding defects in humans. These include a multifactorial etiology (with effects of both genetic and environmental factors), location of spina bifida lesions at the lumbosacral level, the presence of elevated alpha-fetoprotein in the amniotic fluid and a female excess among exencephalic embryos. […] The closure defects in ct/ct embryos are a mechanical consequence of excessive ventral curvature of the caudal region of the embryo. This, in turn, results from a dorso-ventral growth imbalance caused by a diminished cellular proliferation rate in the hindgut endoderm. In addition to spina bifida, cranial NTDs (exencephaly) also occur at low frequency among curly tail embryos (approximately 5%), but the cellular basis for these defects is not known. Curly tail mice were maintained as a closed random-bred colony as described in Van […] et al (Anat Embryol 2001 203: 225-237). […] Any resorptions were recorded. Crown-rump length was measured using an eyepiece graticule. Statistical analysis was carried out using SigmaStat (version 3.5; Systat Software Inc). Proportions were compared by z-test. Comparisons of mean values were made by […] or by One Way ANOVA with pairwise analysis by Holm-Sidak test. Embryos removed from pregnant females at E11.5-13.5 were scored for the outcome of low spinal neurulation as: normal (ST, straight tail), tail flexion defect (CT, curled tail), or open spina bifida which was always associated with a tail flexion defect (SB plus CT). Tail flexion defects arise when closure of the neural tube is delayed but does ultimately occur.

For a further data set, the system named is neural tube defects. As to conditions: cited from earlier work.
A further data set has as its system ct/ct embryos. The settings on record: supplementation; cited from earlier work.
For another data set, the system named is genomic DNA. The data set is described as follows: Incorporation of tritiated nucleotide precursors into genomic DNA in embryo culture. As to conditions: embryos cultured E9.5-10.5, mean ± SEM, n = 3. The arrangement: species or system mouse. Here is the method:
Embryos were explanted at E9.5 and cultured for 24 hours in rat serum as described previously (Cockroft, In: Copp […], editors. Postimplantation Mammalian Embryos: A Practical Approach. Oxford: […] DNA concentration was determined by NanoDrop.

In the data set on curly tail embryos, `Cc1cn([C@H]2C[C@H](O)[C@@H](CO)O2)c(=O)[nH]c1=O` [Thy only, thymidine] registered a frequency of exencephaly of 2.7%. This molecule also displayed a Mean litter size in the data set on curly tail mice of 7.4 ± 0.8. The Resorption per litter in the data set on curly tail mice is recorded as 0.9 ± 0.4. Besides, the “frequency of straight-tailed (unaffected) embryos compared with controls” value in data set [1] (listed as Thy) is on record as “significantly higher”; in data set [1] (listed as thymidine only) it was “higher frequency”. In addition, in data set [1] (litter-by-litter analysis, One Way ANOVA), the “proportion of unaffected, straight tail embryos within litter compared with controls” value was “not statistically significant”. The “frequency of spina bifida compared with controls” value in data set [1] (20 mg/kg) is reported as “trend towards reduced spina bifida frequency”; in data set [1] (listed as thymidine alone, 20 mg/kg), “trend towards reduced frequency”.
`Nc1ncnc2nc[nH]c12` [Ade only, adenine]: in the data set on curly tail mice, the Mean litter size was 7.5 ± 0.7 and the Resorption per litter came to 0.8 ± 0.3. In addition, the “frequency of spina bifida compared with controls” value in data set [1] is on record as “no effect”.
`Nc1nc2ncc(CNc3ccc(C(=O)N[C@@H](CCC(=O)O)C(=O)O)cc3)nc2c(=O)[nH]1` [folic acid]: the “reduction of NTD recurrence risk” value with neural tube defects (5 mg/day, women with a previous affected pregnancy) is given as around 70%. Also, the “reduction in the prevalence of NTDs” value in the data set on neural tube defects (USA, fortification of bread flour) was 26%. For the same molecule, the “NTDs not preventable by maternal treatment” value with neural tube defects (human, in vivo) is recorded as 30-50%. Further, the NTD recurrences prevented entry in the data set with neural tube defects (randomised clinical trials, administered early in pregnancy) was “up to 70%”. Besides, the “prevention of NTDs in ct/ct embryos” value in the data set on ct/ct embryos is “not preventable”.
Regarding `Cc1cn([C@H]2C[C@H](O)[C@@H](CO)O2)c(=O)[nH]c1=O` [[^3H]-thymidine], the “[^3H] incorporation into genomic DNA” value in the data set on genomic DNA (37,000 Bq/ml, 0.07 nmol/ml) is 898.4 ± 98.0 cpm/μg.
Turning to `Nc1ncnc2nc[nH]c12` [[^3H]-adenine], the “[^3H] incorporation into genomic DNA” value in the data set with genomic DNA (37,000 Bq/ml, 0.036 nmol/ml) is recorded as 40.0 ± 6.6 cpm/μg; with genomic DNA (74,000 Bq/ml, 0.07 nmol/ml), 82.8 ± 6.7 cpm/μg.
